Structures can show the parent of a compound that is named as a salt.
Legend:
CP67-MEL = assay: SANGER: Inhibition of human CP67-MEL cell growth in a cell viability assay.; type: functional, cell-based
EW-12 = assay: SANGER: Inhibition of human EW-12 cell growth in a cell viability assay.; type: functional, cell-based
KP-N-RT-BM-1 = assay: SANGER: Inhibition of human KP-N-RT-BM-1 cell growth in a cell viability assay.; type: functional, cell-based
NCI-H128 = assay: SANGER: Inhibition of human NCI-H128 cell growth in a cell viability assay.; type: functional, cell-based
NCI-H2107 = assay: SANGER: Inhibition of human NCI-H2107 cell growth in a cell viability assay.; type: functional, cell-based
ECC12 = assay: cells; type: functional, cell-based; conditions: Homo sapiens
Description: SANGER: Inhibition of human ECC12 cell growth in a cell viability assay.

ECC10 = assay: cells; type: functional, cell-based, Homo sapiens; conditions: Homo sapiens, ECC10;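 also: growth inhibition of ECC10 cells, read out by a cell viability assay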
Description: SANGER: Inhibition of human ECC10 cell growth in a cell viability assay.

NBsusSR = assay: cells; type: functional, cell-based, Homo sapiens; conditions: Homo sapiens, NBsusSR;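 also: growth inhibition of the human cell line, read out with a cell viability assay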
Description: SANGER: Inhibition of human NBsusSR cell growth in a cell viability assay.

RH-18 = assay: cells; type: functional, cell-based, Homo sapiens; conditions: Homo sapiens, Rh18;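 also: growth inhibition of human RH-18 cells, read out with a cell viability assay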
Description: SANGER: Inhibition of human RH-18 cell growth in a cell viability assay.

BALL-1 = assay: cells; type: functional, cell-based, Homo sapiens; conditions: Homo sapiens, BALL-1;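 also: growth inhibition of BALL-1 cells, read out with a cell viability assay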
Description: SANGER: Inhibition of human BALL-1 cell growth in a cell viability assay.

TGBC11TKB = assay: cells; type: functional, cell-based, Homo sapiens; conditions: Homo sapiens, TGBC11TKB;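 also: growth inhibition of human TGBC11TKB cells, measured by a cell viability assay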
Description: SANGER: Inhibition of human TGBC11TKB cell growth in a cell viability assay.

CHP-134 = assay: SANGER: Inhibition of human CHP-134 cell growth in a cell viability assay.; type: functional, cell-based
NCI-H1666 = assay: cells; type: functional, cell-based, Homo sapiens; conditions: Homo sapiens, NCI-H1666;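 also: growth inhibition of the cell line, read out with a cell viability assay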
Description: SANGER: Inhibition of human NCI-H1666 cell growth in a cell viability assay.

SW900 = assay: cells; type: functional, cell-based, Homo sapiens; conditions: Homo sapiens, SW900;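 also: IC50 is the concentration that inhibits SW900 cell growth, measured by a cell viability assay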
Description: SANGER: Inhibition of human SW900 cell growth in a cell viability assay.

DV-90 = assay: cells; type: functional, cell-based, Homo sapiens; conditions: Homo sapiens, DV-90;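 also: Read-out is a viability assay, with IC50 reflecting the drop in DV-90 cell growth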
Description: SANGER: Inhibition of human DV-90 cell growth in a cell viability assay.

EW-7 = assay: SANGER: Inhibition of human EW-7 cell growth in a cell viability assay.; type: functional, cell-based; conditions: Homo sapiens, EW-7
MES-SA = assay: cells; type: functional, cell-based, Homo sapiens; conditions: Homo sapiens, MES-SA;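 also: growth inhibition of human MES-SA cells, read out with a cell viability assay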
Description: SANGER: Inhibition of human MES-SA cell growth in a cell viability assay.

NCI-H1618 = assay: cells; type: functional, cell-based, Homo sapiens; conditions: Homo sapiens, NCI-H1618;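 also: growth inhibition of human NCI-H1618 cells, measured by a cell viability assay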
Description: SANGER: Inhibition of human NCI-H1618 cell growth in a cell viability assay.

NCI-H1734 = assay: cells; type: functional, cell-based, Homo sapiens; conditions: Homo sapiens, NCI-H1734;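 also: growth inhibition of human NCI-H1734 cells, read out with a cell viability assay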
Description: SANGER: Inhibition of human NCI-H1734 cell growth in a cell viability assay.

RT-4 = assay: SANGER: Inhibition of human RT4 cell growth in a cell viability assay.; type: functional, cell-based; conditions: Homo sapiens, RT-4
SK-CO-1 = assay: cells; type: functional, cell-based, Homo sapiens; conditions: Homo sapiens, SK-CO-1;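 also: growth inhibition of SK-CO-1 cells, determined by a viability readout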
Description: SANGER: Inhibition of human SK-CO-1 cell growth in a cell viability assay.

SNG-M = assay: cells; type: functional, cell-based, Homo sapiens; conditions: Homo sapiens, SNG-M
Description: SANGER: Inhibition of human SNG-M cell growth in a cell viability assay.

SNU-475 = assay: cells; type: functional, cell-based, Homo sapiens; conditions: Homo sapiens, SNU-475
Description: SANGER: Inhibition of human SNU-475 cell growth in a cell viability assay.

C-4-II = assay: SANGER: Inhibition of human C-4-II cell growth in a cell viability assay.; type: functional, cell-based; conditions: Homo sapiens, C-4-II
TT = assay: cells; type: functional, cell-based, Homo sapiens; conditions: Homo sapiens, TT
Description: SANGER: Inhibition of human TT cell growth in a cell viability assay.

SMILES | IC50 (DV-90) [nM] | IC50 (EW-7) [nM] | IC50 (MES-SA) [nM] | IC50 (NCI-H1618) [nM] | IC50 (NCI-H1734) [nM] | IC50 (RT-4) [nM] | IC50 (SK-CO-1) [nM] | IC50 (SNG-M) [nM] | IC50 (SNU-475) [nM] | IC50 (C-4-II) [nM] | IC50 (TT) [nM] | further results
COc1cc(-c2nn([C@H]3CC[C@H](N4CCN(C(C)=O)CC4)CC3)c3ncnc(N)c23)ccc1NC(=O)c1cc2ccccc2n1C |  |  |  |  |  |  |  |  |  |  |  | IC50 (CP67-MEL): > 5120 nM; IC50 (EW-12): > 5120 nM; IC50 (KP-N-RT-BM-1): > 5120 nM; IC50 (NCI-H128): > 5120 nM; IC50 (NCI-H2107): > 5120 nM
COc1cc(N2CCN(C)CC2)ccc1Nc1ncc2c(n1)N(C)c1ccccc1C(=O)N2C |  |  |  |  |  |  |  |  |  |  |  | IC50 (ECC12): > 8000 nM; IC50 (EW-12): > 8000 nM; IC50 (NCI-H128): > 8000 nM; IC50 (NCI-H2107): > 8000 nM
C#Cc1cccc(Nc2ncnc3cc(OCCOC)c(OCCOC)cc23)c1 [ERLOTINIB] |  |  |  |  |  |  |  |  |  |  |  | IC50 (ECC12): 80.5 nM; IC50 (EW-12): > 2000 nM; IC50 (NCI-H128): > 2000 nM; IC50 (NCI-H2107): > 2000 nM
Cn1cnc2c(F)c(Nc3ccc(Br)cc3Cl)c(C(=O)NOCCO)cc21 [SELUMETINIB] |  |  |  |  |  |  |  |  |  |  |  | IC50 (ECC10): > 4000 nM; IC50 (NBsusSR): > 4000 nM; IC50 (RH-18): > 4000 nM; IC50 (BALL-1): > 4000 nM; IC50 (TGBC11TKB): > 4000 nM; IC50 (CHP-134): > 4000 nM
CS(=O)(=O)c1ccc(C(=O)Nc2ccc(Cl)c(-c3ccccn3)c2)c(Cl)c1 [VISMODEGIB] |  |  |  |  |  |  |  |  |  |  |  | IC50 (NBsusSR): > 10000 nM; IC50 (NCI-H1666): > 10000 nM; IC50 (RH-18): > 10000 nM; IC50 (SW900): > 10000 nM; IC50 (BALL-1): > 10000 nM; IC50 (TGBC11TKB): > 10000 nM
Oc1ccc2ccccc2c1SSc1c(O)ccc2ccccc12 | > 32000 | > 32000 | 23900 | > 32000 | > 32000 | > 32000 | > 32000 | > 32000 | > 32000 | > 32000 | > 32000 | 
Cc1cc([N+](=O)[O-])ccc1NS(=O)(=O)c1cc(Cl)ccc1Cl | 1940 | > 32000 | > 32000 | > 32000 | 8730 | > 32000 | 13400 | 2770 | > 32000 | 6370 | 9130 | 
COc1cccc2c1C(=O)c1c(O)c3c(c(O)c1C2=O)C[C@@](O)(C(=O)CO)C[C@@H]3O[C@H]1C[C@H](N)[C@H](O)[C@H](C)O1 [DOXORUBICIN] | 329 | 30.6 | 99.5 | 104 | 53 | > 1020 | 129 | 18.3 | > 1020 | 473 | > 1020 | 
CO[C@H]1C[C@@H]2CC[C@@H](C)[C@@](O)(O2)C(=O)C(=O)N2CCCC[C@H]2C(=O)O[C@H]([C@H](C)C[C@@H]2CC[C@@H](OC(=O)C(C)(CO)CO)[C@H](OC)C2)CC(=O)[C@H](C)/C=C(\C)[C@@H](O)[C@@H](OC)C(=O)[C@H](C)C[C@H](C)/C=C/C=C/C=C/1C [TEMSIROLIMUS] |  |  |  |  |  |  |  |  |  |  |  | IC50 (ECC10): > 200 nM; IC50 (NBsusSR): 21.3 nM; IC50 (NCI-H1666): > 200 nM; IC50 (RH-18): > 200 nM; IC50 (SW900): > 200 nM; IC50 (BALL-1): > 200 nM; IC50 (TGBC11TKB): > 200 nM
Nc1ccn([C@@H]2O[C@H](CO)[C@@H](O)C2(F)F)c(=O)n1 [GEMCITABINE] | > 1020 | < 4 | < 4 | 198 | 11.3 | > 1020 | 34 | < 4 | > 1020 | 152 | > 1020 | 
COC1=CC(c2cc3ccccc3[nH]2)=N/C1=C\c1[nH]c(C)cc1C [OBATOCLAX MESYLATE] | 1760 | < 62.5 | 405 | 2880 | 420 | 1600 | 2620 | < 62.5 | > 16000 | 3760 | > 16000 | 
C=C(c1ccc(C(=O)O)cc1)c1cc2c(cc1C)C(C)(C)CCC2(C)C [BEXAROTENE] | > 8000 | > 8000 | > 8000 | > 8000 | > 8000 | > 8000 | > 8000 | > 8000 | > 8000 | > 8000 | > 8000 | 
Nc1cccc2c1CN(C1CCC(=O)NC1=O)C2=O (stereo not given) [LENALIDOMIDE] |  |  |  |  |  |  |  |  |  |  |  | IC50 (ECC10): > 5000 nM; IC50 (NBsusSR): > 5000 nM; IC50 (NCI-H1666): > 5000 nM; IC50 (RH-18): > 5000 nM; IC50 (SW900): > 5000 nM; IC50 (BALL-1): > 5000 nM; IC50 (TGBC11TKB): > 5000 nM
COc1cc2ncn(-c3cc(OCc4ccccc4C(F)(F)F)c(C(N)=O)s3)c2cc1OC [GW843682X] |  |  |  |  |  |  |  |  |  |  |  | IC50 (CP67-MEL): 116 nM; IC50 (EW-12): > 256 nM; IC50 (KP-N-RT-BM-1): 131 nM; IC50 (NCI-H128): > 256 nM; IC50 (NCI-H2107): > 256 nM

— ChEMBL document CHEMBL1201861, “Genomics of Drug Sensitity in Cancer screening data, Wellcome Trust Sanger Institute”
